Reference: PubChem BioAssay (NCI)
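Following 48 hours of exposure in 96-well plates, responses at five concentrations were used to interpolate endpoints linearly. TGI denotes the concentration required for complete inhibition of growth.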

Tests used:
Assay in all cases: growth of human tumour cells (NCI), 48 h
[1] = system: HOP-62 NSCLC
[2] = system: SR leukemia
[3] = system: SK-MEL-28 melanoma
[4] = system: HL-60(TB) leukemia
[5] = system: CAKI-1 renal
[6] = system: SW-620 colon
[7] = system: HCT-15 colon
[8] = system: RPMI-8226 leukemia
[9] = system: K-562 leukemia
[10] = system: MOLT-4 leukemia
[11] = system: OVCAR-3 ovarian
[12] = system: HT29 colon
[13] = system: U251 CNS
[14] = system: OVCAR-4 ovarian
[15] = system: SF-539 CNS
[16] = system: EKVX NSCLC
[17] = system: SF-268 CNS
[18] = system: MDA-MB-231 breast

| SMILES | TGI [1] [µM] | TGI [2] [µM] | TGI [3] [µM] | TGI [4] [µM] | TGI [5] [µM] | TGI [6] [µM] | TGI [7] [µM] | TGI [8] [µM] | TGI [9] [µM] | TGI [10] [µM] | TGI [11] [µM] | TGI [12] [µM] | TGI [13] [µM] | TGI [14] [µM] | TGI [15] [µM] | TGI [16] [µM] | TGI [17] [µM] | TGI [18] [µM] |
| --- | --- | --- | --- | --- | --- | --- | --- | --- | --- | --- | --- | --- | --- | --- | --- | --- | --- | --- |
| NC(=O)SCCC(N)C(=O)O (stereo unspecified) | > 100 | > 100 | > 100 | > 100 | > 100 | > 100 | > 100 | > 100 | > 100 | > 100 | > 100 | > 100 | > 100 | > 100 | > 100 | > 100 | > 100 | > 100 |
| OC(c1ccc2c(c1)OCO2)c1ccc2c(c1)OCO2 | > 100 | > 100 | > 100 | > 100 | > 100 | > 100 | > 100 | > 100 | > 100 | > 100 | > 100 | > 100 | > 100 | > 100 | > 100 | > 100 | > 100 | > 100 |
| O=C(O)CCC(N=NNc1ccc(-c2nc3ccccc3[nH]2)cc1)C(=O)O (stereo unspecified) | > 100 | > 100 | > 100 | > 100 | > 100 | > 100 | > 100 | > 100 | > 100 | > 100 | > 100 | > 100 | > 100 | > 100 | > 100 | > 100 | – | > 100 |
| O=c1cc(N=Nc2ccc(Cl)c(Cl)c2)[nH]c(=O)[nH]1 | 19.2 | 1.54 | 3.3 | 0.941 | 5.56 | 3.26 | 3.31 | 5.6 | 4.02 | 6.48 | 5.41 | 3.13 | 3.65 | 8.08 | 8.04 | 3.49 | 7.57 | 3.38 |
| COC(=O)C1Cc2ccc3c(c2C1=O)CCCC3 (stereo unspecified) | > 100 | 82.9 | > 100 | > 100 | > 100 | > 100 | > 100 | > 100 | > 100 | > 100 | > 100 | > 100 | > 100 | > 100 | > 100 | > 100 | > 100 | > 100 |
| COc1cc2c(cc1OC)CC1c3cc(OC)c(OC)cc3CCN1CC2 (stereo unspecified) | > 100 | > 100 | > 100 | > 100 | > 100 | > 100 | > 100 | > 100 | > 100 | > 100 | > 100 | > 100 | > 100 | > 100 | > 100 | > 100 | > 100 | > 100 |
| CSC1=NNC(SC)=NN1 | 0.398 | 0.0483 | 0.326 | 0.407 | 0.311 | 0.307 | 0.307 | > 1 | 0.308 | 0.114 | 0.359 | 0.316 | 0.319 | 0.309 | 0.413 | 0.327 | 0.351 | 0.458 |
| COC(=O)C(COC(=O)/C=C/c1ccc(OC(C)=O)c(OC(C)=O)c1)NC(=O)/C=C/c1ccc(OC(C)=O)c(OC(C)=O)c1 (stereo unspecified) | 80.4 | > 100 | 81.7 | > 100 | 59.4 | > 100 | > 100 | > 100 | > 100 | > 100 | 33.7 | 48 | > 100 | 62.8 | > 100 | > 100 | – | 40.1 |
| O=S(=O)(SC1=NCCN1)c1cccc2ccccc12 | > 100 | > 10 | > 100 | > 10 | 59.9 | > 100 | > 100 | 66.6 | 63.5 | 95.9 | > 100 | > 100 | > 100 | > 100 | 49.6 | > 100 | – | 45.6 |
| CCOC(=O)c1c(C)n([O-])c2cc(Cl)c(Cl)cc2[n+]1=O | 57.8 | 25.8 | > 100 | 24.6 | 53 | – | 37.2 | 34.9 | > 100 | 42.8 | 37.1 | > 100 | > 100 | 33.9 | > 100 | 74.4 | 76 | 51.3 |
| CCCCCCCCCCCCCCCCOP(=O)(O)OCC(NC(C)=O)C(=O)O (stereo unspecified) | 36.9 | > 100 | > 100 | > 100 | > 100 | > 100 | 34.3 | > 100 | > 100 | 51.8 | > 100 | > 100 | 40.8 | 60.7 | > 100 | > 100 | 95.9 | 93.2 |
| CCOc1ccccc1-c1nc2c(s1)C(=O)c1ccccc1C2=O | 28.7 | > 100 | 30.4 | 4.4 | 26.7 | 23.4 | > 100 | 54.8 | 32.4 | > 100 | 8.01 | – | 27.7 | 35 | 40.9 | 41.2 | 29 | 12.7 |
| COc1ccc(C2=C(N)c3ncccc3C2=O)cc1 | > 100 | > 100 | > 100 | > 100 | > 100 | > 100 | > 100 | > 100 | > 100 | > 100 | > 100 | > 100 | > 100 | > 100 | > 100 | > 100 | > 100 | > 100 |
| O=c1[nH]nc(-c2ccccc2)n1/N=C/c1ccccc1Cl | > 100 | 85.6 | > 100 | 48 | > 100 | > 100 | > 100 | 94.4 | > 100 | 56.5 | 57.9 | > 100 | > 100 | > 100 | > 100 | > 100 | > 100 | > 100 |
| CC(=O)O[C@@]12CO[C@@H]1C[C@@H](O)[C@@]1(C)C(=O)[C@H](O)C3=C(C)[C@@H](OC(=O)[C@H](O)[C@@H](NC(=O)c4ccccc4)c4ccccc4)C[C@@](O)([C@@H](OC(=O)c4ccccc4)C12)C3(C)C (stereo partly specified) | > 69.7 | > 50.1 | > 100 | > 39.9 | > 100 | > 100 | > 100 | > 100 | > 100 | > 42.5 | – | 0.124 | > 100 | > 100 | 0.0579 | > 100 | > 100 | 43.8 |
| COc1nc2c(c(=O)n1C)N=C(c1ccccc1)[C@H](C(CC(=O)c1ccccc1)c1ccccc1)C(c1ccccc1)N2 (stereo partly specified) | > 100 | > 100 | > 100 | > 100 | > 100 | > 100 | – | > 100 | > 100 | 57.1 | > 100 | > 100 | > 100 | > 100 | > 100 | > 100 | – | 78.7 |
| C=C1C(=O)OC2C3C(=C)[C@@H](OC(C)=O)CC3C(C)=CC(OC(=O)C(C)(OC(C)=O)C(C)OC(C)=O)[C@@H]12 (stereo partly specified) | > 100 | > 100 | 29 | 6.54 | 23.2 | 21.9 | 25.7 | 38.5 | 32.6 | 52.2 | 26.7 | 27.5 | 30.8 | 32.2 | 33.5 | 30.9 | 51.1 | 32.7 |
| COc1cccc(Nc2nc(N)nc(N)c2N)c1 | > 100 | 49.6 | > 100 | > 100 | 58.3 | 91.1 | > 100 | 68.3 | > 100 | 34.5 | > 100 | > 100 | > 100 | > 100 | > 100 | > 100 | > 100 | 58.5 |
| O=C(N/N=C/c1ccc([N+](=O)[O-])cc1)Nc1ccc(Br)cc1 | > 100 | > 100 | > 100 | > 100 | > 100 | > 100 | > 100 | > 100 | > 100 | > 100 | > 100 | > 100 | > 100 | > 100 | > 100 | > 100 | > 100 | > 100 |
| CCN(CC)C1C(=O)NC1C#Cc1ccccc1 (stereo unspecified) | > 100 | > 100 | > 100 | > 100 | > 100 | > 100 | > 100 | > 100 | > 100 | – | > 100 | > 100 | > 100 | > 100 | > 100 | > 100 | > 100 | > 100 |
